Active and inactive are the calls of the source. The rule behind the calls is not given here.
System: PAMPA artificial membrane permeability, UV readout, 30 min
Assay: PAMPA effective permeability – biophysical, pH 7.4, 6.2, 5.0, ADME assay, late-stage follow-up (AID 1557)
Conditions: at 50 µM, stronger effect = higher value

effective permeability pH 7.4: 58 10-6 cm/s (inactive)
effective permeability pH 5.0 (measured here: permeability at pH 5.0): 90 10-6 cm/s
effective permeability pH 6.2 (measured here: permeability at pH 6.2): 98 10-6 cm/s
SMILES: C=CCn1c(SCC(=O)c2ccc(O)c(O)c2)nnc1-c1ccccc1OC

Reference: PubChem BioAssay AID1557 (Sanford-Burnham Center for Chemical Genomics, 2009)
